Patent US20240067632A1, “WEE1 Degrading Compounds and Uses Thereof” (Bristol-Myers Squibb Company, priority 2022, published 2024)

Assays:
WEE1 = target: T1, WEE1 (Homo sapiens, UniProt P30291+Q96SW2); assay: WEE1-ePL degradation assay (LentiX-WEE1-ePL-GSPT1-ND cells, InCELL Hunter luminescence, 4 h); assay type: cell-based; settings: 293T-LentiX WEE1-ePL cells; for 293T-LentiX WEE1-ePL Degradation 4 hr (Ymin): lower limit of the fit (0 = luciferase inhibitor, Ymax = DMSO control); for DC50: read-out: 293T-LentiX WEE1-ePL Degradation 4 hr (EC50)
T1 construct: C-terminal ePL-tagged (DiscoverX, Fremont, CA) full-length WEE1 expression construct; expressed in transfected cells; host or cells: LentiX-HEK293T (Invitrogen), lentiviral transduction; co-expressing GSPT1-GN (G576N, lacking the first 158 amino acids)
Method in brief: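 Degradation EC50 was fitted by a four-parameter logistic model, with the upper limit taken from DMSO wells. Luminescence was read with InCELL Hunter reagent after 30 min at room temperature, following a 4 h, 37° C exposure of 2500 cells/well. Cells were LentiX-HEK293T carrying ePL-tagged full-length WEE1, dosed in 10 points (3-fold) from 1 or 10 uM.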

MKN45 cells = assay: MKN45 cell proliferation assay (Cell-Titer-Glo, 120 h); assay type: cell-based; settings: for EC50: Homo sapiens, MKN-45, 120 h, Cell-Titer-Glo, growth inhibition, read-out: MKN45 Cell Prolif. 120 hr (EC50); for MKN45 Cell Prolif. 120 hr (Ymin-Obs): minimal percent of DMSO control observed in the concentrations tested
Method in brief: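 Cells seeded at 400/well onto pre-printed 10-point half-log dilutions (top 1 or 10 uM, 0.1% DMSO final), in triplicate, and grown 120 h at 37 C. Viability by Cell-Titer-Glo luminescence, blank-subtracted and normalised to DMSO; EC50 from four-parameter logistic fit, with observed minimal % of control recorded as Ymin-obs.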

| SMILES | 293T-LentiX WEE1-ePL Degradation 4 hr (Ymin) (WEE1) | DC50 (WEE1) [µM] | EC50 (MKN45 cells) [µM] | MKN45 Cell Prolif. 120 hr (Ymin-Obs) (MKN45 cells) |
| --- | --- | --- | --- | --- |
| Cc1ccc2cc(CN3CC[C@H](Oc4ccc5c(c4)CN(C4CCC(=O)NC4=O)C5=O)C3)cc(C)c2n1 (stereo partly drawn) [3-(5-{[(3S)-1-[(2,8-dimethylquinolin-6-yl)methyl]pyrrolidin-3-yl]oxy}-1-oxo-2,3-dihydro-1H-isoindol-2-yl)piperidine-2,6-dione] | 29.33 | 0.00644 | 0.0555 | 13.61 |
| O=C1CCC(N2Cc3cc(O[C@H]4CCN(Cc5ccc6nc(Cl)ccc6c5)C4)ccc3C2=O)C(=O)N1 (stereo partly drawn) [3-(5-{[(3S)-1-[(2-chloroquinolin-6-yl)methyl]pyrrolidin-3-yl]oxy}-1-oxo-2,3-dihydro-1H-isoindol-2-yl)piperidine-2,6-dione] | 29.2 | 0.00282 | 0.00958 | 12.57 |
| COc1ncc2cc(CN3CC[C@H](Oc4ccc5c(c4)CN(C4CCC(=O)NC4=O)C5=O)C3)ccc2n1 (stereo partly drawn) [3-(5-{[(3S)-1-[(2-methoxyquinazolin-6-yl)methyl]pyrrolidin-3-yl]oxy}-1-oxo-2,3-dihydro-1H-isoindol-2-yl)piperidine-2,6-dione] | 37 | 0.00805 | 0.0223 | 8.47 |
| Cc1ncc2cc(CN3CC[C@H](Oc4ccc5c(c4)CN(C4CCC(=O)NC4=O)C5=O)C3)ccc2n1 (stereo partly drawn) [3-(5-{[(3S)-1-[(2-methylquinazolin-6-yl)methyl]pyrrolidin-3-yl]oxy}-1-oxo-2,3-dihydro-1H-isoindol-2-yl)piperidine-2,6-dione] | 34.5 | 0.0296 | 0.0271 | 7.995 |
| Cc1ncc2ccc(CN3CC[C@H](Oc4ccc5c(c4)CN(C4CCC(=O)NC4=O)C5=O)C3)cc2n1 (stereo partly drawn) [3-(5-{[(3S)-1-[(2-methylquinazolin-7-yl)methyl]pyrrolidin-3-yl]oxy}-1-oxo-2,3-dihydro-1H-isoindol-2-yl)piperidine-2,6-dione] | 35.02 | 0.0655 | 0.365 | 32.41 |
| Cc1ccc2cc(CN3CC[C@H](Oc4ccc5c(c4)CN(C4CCC(=O)NC4=O)C5=O)C3)ccc2n1 (stereo partly drawn) [3-(5-{[(3S)-1-[(2-methylquinolin-6-yl)methyl]pyrrolidin-3-yl]oxy}-1-oxo-2,3-dihydro-1H-isoindol-2-yl)piperidine-2,6-dione] | 30.3 | 0.00381 | 0.0223 | 13.85 |
| CC(C)(C)c1ccc2cc(CN3CC[C@H](Oc4ccc5c(c4)CN(C4CCC(=O)NC4=O)C5=O)C3)ccc2n1 (stereo partly drawn) [3-(5-{[(3S)-1-[(2-tert-butylquinolin-6-yl)methyl]pyrrolidin-3-yl]oxy}-1-oxo-2,3-dihydro-1H-isoindol-2-yl)piperidine-2,6-dione] | 29 | 0.0028 | 0.0092 | 11.88 |
| O=C1CCC(N2Cc3cc(O[C@H]4CCN(Cc5ccc6nc(C78CCOCC7C8)ccc6c5)C4)ccc3C2=O)C(=O)N1 (stereo partly drawn) [3-(5-{[(3S)-1-[(2-{3-oxabicyclo[4.1.0]heptan-6-yl}quinolin-6-yl)methyl]pyrrolidin-3-yl]oxy}-1-oxo-2,3-dihydro-1H-isoindol-2-yl)piperidine-2,6-dione] | 33.33 | 0.0031 | 0.00216 | 9.735 |
| O=C1CCC(N2Cc3cc(O[C@H]4CCN(Cc5ccc6nc(N7CCC78COC8)ncc6c5)C4)ccc3C2=O)C(=O)N1 (stereo partly drawn) [3-(5-{[(3S)-1-[(2-{6-oxa-1-azaspiro[3.3]heptan-1-yl}quinazolin-6-yl)methyl]pyrrolidin-3-yl]oxy}-1-oxo-2,3-dihydro-1H-isoindol-2-yl)piperidine-2,6-dione] | 37 | 0.0085 | 0.0142 | 14.05 |
| O=C1CCC(N2Cc3cc(O[C@H]4CCN(Cc5ccc6nc(N7CCC78COC8)ccc6c5)C4)ccc3C2=O)C(=O)N1 (stereo partly drawn) [3-(5-{[(3S)-1-[(2-{6-oxa-1-azaspiro[3.3]heptan-1-yl}quinolin-6-yl)methyl]pyrrolidin-3-yl]oxy}-1-oxo-2,3-dihydro-1H-isoindol-2-yl)piperidine-2,6-dione] | 35 | 0.00617 | 0.00382 | 8.91 |

Further lines, with some results ahead:

| 293T-LentiX WEE1-ePL Degradation 4 hr (Ymin) (WEE1) | DC50 (WEE1) [µM] | EC50 (MKN45 cells) [µM] | SMILES | MKN45 Cell Prolif. 120 hr (Ymin-Obs) (MKN45 cells) |
| --- | --- | --- | --- | --- |
| 28.095 | 0.0193 | 0.0988 | O=C1CCC(N2Cc3cc(O[C@H]4CCN(Cc5cc6ccncc6cn5)C4)ccc3C2=O)C(=O)N1 (stereo partly drawn) [3-(5-{[(3S)-1-[(2,7-naphthyridin-3-yl)methyl]pyrrolidin-3-yl]oxy}-1-oxo-2,3-dihydro-1H-isoindol-2-yl)piperidine-2,6-dione] | 6.92 |
| 34.33 | 0.00221 | 0.00603 | O=C1CCC(N2Cc3cc(O[C@H]4CCN(Cc5ccc6nc(C7CC7)ccc6c5)C4)ccc3C2=O)C(=O)N1 (stereo partly drawn) [3-(5-{[(3S)-1-[(2-cyclopropylquinolin-6-yl)methyl]pyrrolidin-3-yl]oxy}-1-oxo-2,3-dihydro-1H-isoindol-2-yl)piperidine-2,6-dione] | 12.12 |
| 27 | 0.00302 | 0.0252 | CCc1ccc2cc(CN3CC[C@H](Oc4ccc5c(c4)CN(C4CCC(=O)NC4=O)C5=O)C3)ccc2n1 (stereo partly drawn) [3-(5-{[(3S)-1-[(2-ethylquinolin-6-yl)methyl]pyrrolidin-3-yl]oxy}-1-oxo-2,3-dihydro-1H-isoindol-2-yl)piperidine-2,6-dione] | 12.49 |
| 45 | 0.0165 | 0.0702 | C#Cc1ncc2cc(CN3CC[C@H](Oc4ccc5c(c4)CN(C4CCC(=O)NC4=O)C5=O)C3)ccc2n1 (stereo partly drawn) [3-(5-{[(3S)-1-[(2-ethynylquinazolin-6-yl)methyl]pyrrolidin-3-yl]oxy}-1-oxo-2,3-dihydro-1H-isoindol-2-yl)piperidine-2,6-dione] | 28.856 |
| 32 | 0.00314 | 0.26 | C#Cc1ccc2cc(CN3CC[C@H](Oc4ccc5c(c4)CN(C4CCC(=O)NC4=O)C5=O)C3)ccc2n1 (stereo partly drawn) [3-(5-{[(3S)-1-[(2-ethynylquinolin-6-yl)methyl]pyrrolidin-3-yl]oxy}-1-oxo-2,3-dihydro-1H-isoindol-2-yl)piperidine-2,6-dione] | 6.523 |
| 36 | 0.00624 | 0.0452 | COc1ccc2cc(CN3CC[C@H](Oc4ccc5c(c4)CN(C4CCC(=O)NC4=O)C5=O)C3)ccc2n1 (stereo partly drawn) [3-(5-{[(3S)-1-[(2-methoxyquinolin-6-yl)methyl]pyrrolidin-3-yl]oxy}-1-oxo-2,3-dihydro-1H-isoindol-2-yl)piperidine-2,6-dione] | 19.71 |
| 52 | 0.0405 | > 10 | Cn1cc2cc(CN3CC[C@H](Oc4ccc5c(c4)CN(C4CCC(=O)NC4=O)C5=O)C3)ccc2n1 (stereo partly drawn) [3-(5-{[(3S)-1-[(2-methyl-2H-indazol-5-yl)methyl]pyrrolidin-3-yl]oxy}-1-oxo-2,3-dihydro-1H-isoindol-2-yl)piperidine-2,6-dione] | 81.985 |
| 39.18 | 0.0395 | 0.663 | Cc1cc(CN2CC[C@H](Oc3ccc4c(c3)CN(C3CCC(=O)NC3=O)C4=O)C2)ccn1 (stereo partly drawn) [3-(5-{[(3S)-1-[(2-methylpyridin-4-yl)methyl]pyrrolidin-3-yl]oxy}-1-oxo-2,3-dihydro-1H-isoindol-2-yl)piperidine-2,6-dione] | 37.845 |
| 34.08 | 0.00804 | 0.0348 | Cc1nc2ccccc2cc1CN1CC[C@H](Oc2ccc3c(c2)CN(C2CCC(=O)NC2=O)C3=O)C1 (stereo partly drawn) [3-(5-{[(3S)-1-[(2-methylquinolin-3-yl)methyl]pyrrolidin-3-yl]oxy}-1-oxo-2,3-dihydro-1H-isoindol-2-yl)piperidine-2,6-dione] | 11.29 |
| 37 | 0.0355 | 0.0218 | O=C1CCC(N2Cc3cc(O[C@H]4CCN(Cc5ccc6nc(N7CC8(COC8)C7)ncc6c5)C4)ccc3C2=O)C(=O)N1 (stereo partly drawn) [3-(5-{[(3S)-1-[(2-{2-oxa-6-azaspiro[3.3]heptan-6-yl}quinazolin-6-yl)methyl]pyrrolidin-3-yl]oxy}-1-oxo-2,3-dihydro-1H-isoindol-2-yl)piperidine-2,6-dione] | 15.5 |
| 41.5 | 0.00776 | 0.0107 | O=C1CCC(N2Cc3cc(O[C@H]4CCN(Cc5ccc6nc(N7CC8(COC8)C7)ccc6c5)C4)ccc3C2=O)C(=O)N1 (stereo partly drawn) [3-(5-{[(3S)-1-[(2-{2-oxa-6-azaspiro[3.3]heptan-6-yl}quinolin-6-yl)methyl]pyrrolidin-3-yl]oxy}-1-oxo-2,3-dihydro-1H-isoindol-2-yl)piperidine-2,6-dione] | 14.91 |
